Source: US5128244A, “Assay for dioxins” (Wisconsin Alumni Research Foundation, priority 1989, dated 1992)

What was measured:
Ah receptor [1] = molecular target: T1, Ah receptor (Mus musculus, UniProt P30561); assay: Competitive binding assay of TCDD against [125I] radioligand for Ah receptor; parameters: species or system C57BL/6J mice
T1 construct: full-length receptor (C57BL/6J carries Ahr b-1 allele)
T1 sequence (P30561 10-848): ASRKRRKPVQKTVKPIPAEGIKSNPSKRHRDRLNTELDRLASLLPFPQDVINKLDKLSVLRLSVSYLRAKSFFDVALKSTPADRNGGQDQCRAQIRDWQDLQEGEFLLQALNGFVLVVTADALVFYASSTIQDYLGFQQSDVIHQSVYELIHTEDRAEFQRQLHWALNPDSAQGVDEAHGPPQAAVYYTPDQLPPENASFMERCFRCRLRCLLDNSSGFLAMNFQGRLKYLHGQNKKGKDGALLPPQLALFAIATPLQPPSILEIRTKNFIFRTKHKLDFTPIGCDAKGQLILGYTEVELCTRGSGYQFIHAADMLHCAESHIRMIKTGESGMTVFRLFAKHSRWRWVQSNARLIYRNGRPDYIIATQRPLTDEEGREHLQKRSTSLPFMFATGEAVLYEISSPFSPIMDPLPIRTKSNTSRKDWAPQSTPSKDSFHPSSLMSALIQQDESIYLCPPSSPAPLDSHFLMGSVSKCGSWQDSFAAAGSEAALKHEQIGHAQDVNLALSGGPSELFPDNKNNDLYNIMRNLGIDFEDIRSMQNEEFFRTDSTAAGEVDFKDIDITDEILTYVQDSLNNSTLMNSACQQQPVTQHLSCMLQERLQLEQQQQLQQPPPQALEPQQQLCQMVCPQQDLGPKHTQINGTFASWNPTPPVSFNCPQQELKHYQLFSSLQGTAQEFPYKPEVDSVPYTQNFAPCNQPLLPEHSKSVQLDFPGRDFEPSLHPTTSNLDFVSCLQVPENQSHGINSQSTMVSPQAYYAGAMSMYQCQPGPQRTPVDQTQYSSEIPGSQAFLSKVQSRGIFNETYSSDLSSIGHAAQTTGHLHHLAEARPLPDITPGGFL
Experimental: C57BL/6J mice were purchased from The Jackson Laboratory, Bar Harbor, Me., and bred in our laboratory. See generally A. Poland et al., 261 J. Biol. Chem. 6352-65 (May 15, 1986) (not prior art). One-hundred adult male and female mice were killed by cervical dislocation, their livers removed, rinsed with ice cold KCl (150 mM), homogenized in 9 vol of MSSENG buffer, and centrifuged at 10,000 xg for 20 min at 4° C. The post-mitochondrial supernatant was carefully removed to avoid contamination by the surface lipid layer, and subjected to centrifugation at 105,000 x g. The supernatant (approx. 10 mg protein/ml) was separated from surface lipids and the microsomal pellet, and stored at -80° C. until processed further.
The frozen cytosolic fraction was thawed, and placed in an ice bath with slow stirring. A saturated solution of ammonium sulfate in MEN buffer was added to the cytosolic preparation, to a final concentration of 40%, over a period of 30 min, and stirred for an additional 30 min. The solution was centrifuged at 10,000 x g for 20 min, the supernatant fraction removed, slowly brought to an ammonium sulfate concentration of 55%, stirred for an additional 30 min, centrifuged at 10,000xg, and the supernatant discarded. The 40-55% ammonium sulfate precipitate was resuspended in 55% ammonium sulfate in MN, and aliquots equivalent to 0.5 g wet weight of liver (15 mg protein) were placed in 12×75 mm borosilicate tubes (VWR Scientific, San Francisco, Calif.), and spun at 5000xg. […]
The assay was terminated by the addition of a 0.5 ml of suspension of charcoal/gelatin (3%/0.3%) in MN buffer with vigorous stirring on a vortex mixer for 3 sec., and incubated for 10 min at 4° C. […] A one ml aliquot of the supernatant fraction of each tube was transferred to 12×75 […] polypropylene tubes (VWR Scientific, San Francisco, CA), and the Ah bound radioligand quantified in a MINAXI Series-5000 gamma scintillation counter (United Technologies/Packard Instrument Co., Downer Grove, Ill.). […]

Ah receptor [2] = molecular target: T1, Ah receptor; assay: Radioligand stock solution aged 120 days, tested in the Ah receptor binding assay; parameters: species or system C57BL/6J mice; conditions: stock solution of radioligand 120 days after its synthesis
From the text: [^125 I]decays to tellurium with a half-life of 60 days. Thus, radiodecay could produce unlabelled 2,3-dibromodibenzo-p-dioxin in the radioligand stock solution. We tested whether radioligand decay products might compete for receptor binding and diminish radioligand binding.

Structure (SMILES): Clc1cc2c(cc1Cl)Oc1cc(Cl)c(Cl)cc1O2 [TCDD, 2,3,7,8-tetrachloro-dibenzo-p-dioxin]
- minimal detectable amount of TCDD (Ah receptor [1]; 1 ml assay): 3.2 pg
- minimal detectable concentration of TCDD (Ah receptor [1]; 1 ml assay, statistical analysis of standard curve of specifically bound radioligand v. log concentration of competing TCDD): 10 pM
- minimal detectable amount of TCDD (Ah receptor [1]; total assay volume reduced to 0.25 ml): 0.8 pg

Structure (SMILES): Brc1cc2c(cc1Br)Oc1cc([125I])ccc1O2 [radioligand, [^125 I]-2-iodo-7,8-dibromo-dibenzo-p-dioxin]
- deviation in the quality control parameters compared to freshly prepared radioligand (Ah receptor [2]): no significant deviation
